These results are taken from patent publication US7144731B2, “SCF antibody compositions and methods of using the same” (Amgen Inc., priority 1989, dated 2006).

One assay concerns normal human bone marrow. The assay is described as follows: Human CFU-GM assay. The class given is cell-based. Particulars: average of triplicate cultures; SCF = COS-1 supernatant 4 days after transfection.
A further assay has as its system human bone marrow. The assay is described as follows: Human bone marrow colony assay. It counts as cell-based. As to conditions: agar colony assay, factors alone or combined. The method, boiled down:
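COS-1-expressed human SCF (aa 1–162), alone or with other growth factors, was tested on Ficoll-separated healthy human bone marrow. Cultures were grown in methylcellulose with 30% FCS and 20 U/ml EPO for 14 days at 7% O2. Colonies ≥0.2 mm were scored.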

Another assay concerns KG-1. The assay is described as follows: KG-1 soft agar cloning assay. It counts as cell-based, human. Particulars: 50 μl assayed (5 ng/ml). The procedure:
Another activity of recombinant human SCF is the ability to cause proliferation in soft agar of the human acute myelogenous leukemia (AML) cell line, KG-1 (ATCC CCL 246). COS-1 supernatants from transfected cells were tested in a KG-1 agar cloning assay [Koeffler et al., Science, 200, 1153–1154 (1978)] essentially as described except cells were plated at 3000/ml.

For the next assay, the system named is HIV. As to conditions: other studies; cited from earlier work.
Assay [1] relates to 5-FU treated mouse bone marrow cells. The assay is described as follows: HPP-CFC assay. It counts as cell-based. As to conditions: typical assay; plated with CSF-1 or IL-6. The text has this:
There are a variety of biological activities which can be attributed to the natural mammalian rat SCF as well as the recombinant rat SCF protein. One such activity is its effect on early hematopoietic cells. This activity can be measured in a High Proliferative Potential Colony Forming Cell (HPP-CFC) assay [Zsebo, et al., supra (1988)]. To investigate the effects of factors on early hematopoietic cells, the HPP-CFC assay system utilizes mouse bone marrow derived from animals 2 days after 5-fluorouracil (5-FU) treatment. […] The rat SCF is plated in the presence of CSF-1 or IL-6 in semi-solid agar cultures. The agar cultures contain McCoys complete medium (GIBCO), 20% fetal bovine serum, 0.3% agar, and 2×10^5 bone marrow cells/ml. The McCoys complete medium contains the following components: 1× McCoys medium supplemented with 0.1 mM pyruvate, 0.24× essential amino acids, 0.24× non-essential amino acids, 0.027% sodium bicarbonate, 0.24× vitamins, 0.72 mM glutamine, 25 μg/ml L-serine, and 12 μg/ml L-asparagine. The bone marrow cells are obtained from Balb/c mice injected i.v. with 150 mg/kg 5-FU. The femurs are harvested 2 days post 5-FU treatment of the mice and bone marrow is flushed out. The red blood cells are lysed with red blood cell lysing reagent (Becton Dickenson) prior to plating. Test substances are plated with the above mixture in 30 mm dishes. Fourteen days later the colonies (>1 mm in diameter) which contain thousands of cells are scored. This assay was used throughout the purification of natural mammalian cell-derived rat SCF.

Assay [2] has as its system murine mast cell line, MC/9. Nature of the assay: MC/9 ^3H-thymidine uptake assay. Particulars: typical. It counts as cell-based. The procedure:
Another useful biological activity of both naturally-derived and recombinant rat SCF is the ability to cause the proliferation of the […] murine mast cell line, MC/9 (ATCC CRL 8306). MC/9 cells are cultured with a source of […] according to the ATCC CRL 8306 protocol. The medium used in the bioassay is RPMI 1640, 4% fetal bovine serum, 5×10^−5M 2-mercaptoethanol, and 1× glutamine-pen-strep. The MC/9 cells proliferate in response to SCF without the requirement for other growth factors. This proliferation is measured by first culturing the cells for 24 h without growth factors, plating 5000 cells in each well of 96 well plates with test sample for 48 h, pulsing for 4 h with 0.5 uCi ^3H-thymidine (specific activity 20 Ci/mmol), harvesting the solution onto glass fiber filters, and then measuring specifically-bound radioactivity. This assay was used in the purification of mammalian cell derived rat SCF after the ACA 54 gel filtration step, section C2 of this Example. Typically, SCF caused a 4–10 fold increase in CPM over background.

The test system of the next assay is normal mouse bone marrow. The assay is described as follows: CFU-GM assay on normal mouse bone marrow. It counts as cell-based. As to conditions: 10 day period, no other factors. The procedure: The action of purified mammalian SCF, both naturally-derived and recombinant, free from interfering colony stimulating factors (CSFs), on normal undepleted mouse bone marrow has been ascertained. A CFU-GM assay [Broxmeyer et al. Exp. Hematol., 5, 87 (1977)] is used to evaluate the effect of SCF on normal marrow. Briefly, total bone marrow cells after lysis of red blood cells are plated in semi-solid agar cultures containing the test substance. After.10 days, the colonies containing clusters of >40 cells are scored. The agar cultures can be dried down onto glass slides and the morphology of the cells can be determined via specific histological stains.

In assay [3] the test system is bone marrow cells (CFU-S). Nature of the assay: pre-CFU-S assay. The class given is cell-based, mouse. The procedure: The in vitro survival and proliferation of primitive stem cells is critical to the success of gene transfer mediated by retroviral insertion or other known methods of gene transfer. The effect of SCF on the in vitro maintenance and/or proliferation of primitive progenitor cells has been studied in two systems which have been described previously [Bodine et al., Proc. Natl. Acad. Sci. 86 8897–8901, 1989]. The first is a pre-CFU-S assay wherein bone marrow cells are incubated for up to six days in suspension culture in the presence of growth factors. Aliquots are injected into lethally iradiated mice and the mice sacrificed at 12–14 days for quantitation of spleen focus formation. […] The second is a competitive repopulation assay which measures the effects of growth factors on recovery and biological activity of cells capable of sustaining long-term hematopoiesis. Cells from two congenic strains of mice differing for a hemoglobin marker are incubated in suspension independently, cells from one strain as a control and cells from a second under experimental conditions. After incubation, equal numbers of bone marrow cells from both cultures are mixed and injected into W/W^v recipients.

Turning to “GM-CSF: human granulocyte-macrophage colony stimulating factor”, the “Colony #/100,000 cells (±SEM)” value in the assay with normal human bone marrow is 7 ± 1. Besides, the “Colony #/10^5 cells (14 Days)” value with human bone marrow is reported as 14 ± 2. The “Colony #/3000 Cells ± SD” value in the assay on KG-1 was found to be 14 ± 5. Moreover, in the assay with HIV, the “replication of HIV in partially purified primary peripheral blood monocytes” value is given as “significantly increase replication of HIV”.

B1: rat SCF: rat stem cell factor, natural (purified from BRL 3A conditioned medium) or recombinant; form not specified at the place (protein, UniProt P21581 26-190, looked up)
Soluble KIT ligand: QEICRNPVTDNVKDITKLVANLPNDYMITLNYVAGMDVLPSHCWLRDMVTHLSVSLTTLLDKFSNISEGLSNYSIIDKLGKIVDDLVACMEENAPKNVKESLKKPETRNFTPEEFFSIFNRSIDAFKDFMVASDTSDCVLSSTLGPEKDSRVSVTKPFMLPPVAA
Turning to B1, the “HPP-CFC per 200,000 cells plated” value in assay [1] is listed as “approximately 50”. Besides, the “increase in CPM over background” value in assay [2] is recorded as 4–10 fold. In addition, in the assay on normal mouse bone marrow, the “colonies from 200,000 cells plated” value is recorded as “over 100”. For the same molecule, in assay [3], the “activity in the pre-CFU-S assay” value was “very little activity”.
